One data set concerns the target T1, 5-HT2A (Homo sapiens, UniProt P28223).
T1 construct: expressed in transfected cells; host or cells: CHO
The experiment in a line: Bioprofiling 6pt Antag 5-HT2A CHO. The format is cell-based. As to conditions: antagonist readout vs Serotonin (5-HT). The procedure:
(§1) The compounds were evaluated across a panel of 20 liability targets (37 functional assays) which included functional cell-based GPCRs and ion channels in both agonist and antagonist readout, measuring calcium flux and biochemical functional assays for nuclear hormone receptors and phosphodiesterases using TR-FRET format, in a 6 point 1:3 dilution dose series (maximum final concentration of 10 μM).

A short description of another data set: Plasma protein binding. As to conditions: mouse, pH 7.4, % bound, read-out: Mouse PPB (converted). The format is in vitro ADME. The procedure:
For plasma protein binding, pooled plasma was thawed in a water bath at 37°C and centrifuged at 4,000 rpm for 5 min to remove any clots. The pH value was measured and adjusted to 7.4, if necessary. RPMI medium (pH 7.4) supplemented with 10% fetal calf serum was used. Working solutions (400 μM) of test compounds were prepared by diluting appropriate volume of the stock solutions with DMSO. Working solutions (400 μM) were spiked into plasma to achieve 2 μM final concentrations as loading solutions. The concentration of organic solvent in the final solutions was 0.5% DMSO. The dialysis instrument was assembled following manufacturer’s instructions. Aliquots of loading solution were loaded in triplicate to the donor side of each dialysis well and dialyzed against an equal volume of dialysis buffer. The plate was shaken and incubated for 6 hours in a humidified incubator with 5% CO2 at 37°C. At the end of dialysis, aliquots of dialysate and retentate were removed into sample collection plates. Each sample was matched with an opposite blank buffer or plasma, with a ratio of matrix:dialysis buffer of 50:50 (v:v) in each well and participated with 500μL of stop solution (50% acetonitrile/methanol; internal standards—200 ng/mL tolbutamide, labetalol and 50 ng/mL metformin). All sample collection plates were rotated at 800 rpm for 5 min to mix samples and centrifuged at 20°C, 4000 rpm for 20 min. Aliquots of supernatant of all the samples were removed and injected into LC-MS/MS. Results were calculated as the percentage of remaining parent compound in plasma or medium after incubation.

The target of data set [1] is T2, Opioid mu (Homo sapiens, UniProt P35372).
T2 construct: expressed in transfected cells; host or cells: CHO
The experiment in a line: Bioprofiling 6pt Antag Opioid mu CHO. As to conditions: antagonist readout vs DAMGO. In kind it is cell-based. The procedure:
as §1

A further data set has as its target T3, ETB (Homo sapiens, UniProt P24530).
T3 construct: expressed in transfected cells; host or cells: CHO
T3 sequence (P24530 27-442): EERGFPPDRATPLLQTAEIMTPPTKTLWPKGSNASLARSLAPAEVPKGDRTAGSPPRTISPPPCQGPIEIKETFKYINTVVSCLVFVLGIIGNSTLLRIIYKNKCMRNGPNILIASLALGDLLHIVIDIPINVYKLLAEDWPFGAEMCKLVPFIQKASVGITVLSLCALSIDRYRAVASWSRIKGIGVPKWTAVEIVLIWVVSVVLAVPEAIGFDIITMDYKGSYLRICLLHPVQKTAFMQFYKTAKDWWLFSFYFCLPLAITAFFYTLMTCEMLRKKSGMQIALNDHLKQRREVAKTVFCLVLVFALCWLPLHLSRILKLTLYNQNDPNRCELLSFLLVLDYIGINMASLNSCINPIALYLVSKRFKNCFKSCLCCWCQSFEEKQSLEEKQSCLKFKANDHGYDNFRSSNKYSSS
The data set is described as follows: Bioprofiling 6pt Antag ETB CHO. The format is cell-based. As to conditions: antagonist readout vs BQ-3020. The procedure:
as §1

In data set [2] the target is T2, Opioid mu. The data set is described as follows: Bioprofiling 6pt Ag Opioid mu CHO. The format is cell-based. To be noted: agonist readout. The procedure: as §1
The target of a further data set is T4, 5-HT2B (Homo sapiens, UniProt P41595).
T4 construct: expressed in transfected cells; host or cells: CHO
The data set is described as follows: Bioprofiling 6pt Ag 5-HT2B CHO. The format is cell-based. To be noted: agonist readout. The procedure: as §1

Another data set has as its target Cav1.2 (L-type) (Mus musculus, UniProt Q01815). The experiment in a line: Bioprofiling 6pt Antag Cav1.2 (L-type) ND7/23. The format is cell-based. To be noted: mouse/rat, ND7/23 cells; antagonist readout vs KCl. The procedure:
as §1

A further data set deals with T5, ETA (Homo sapiens, UniProt P25101).
T5 construct: expressed in transfected cells; host or cells: CHO
T5 sequence (P25101 21-427): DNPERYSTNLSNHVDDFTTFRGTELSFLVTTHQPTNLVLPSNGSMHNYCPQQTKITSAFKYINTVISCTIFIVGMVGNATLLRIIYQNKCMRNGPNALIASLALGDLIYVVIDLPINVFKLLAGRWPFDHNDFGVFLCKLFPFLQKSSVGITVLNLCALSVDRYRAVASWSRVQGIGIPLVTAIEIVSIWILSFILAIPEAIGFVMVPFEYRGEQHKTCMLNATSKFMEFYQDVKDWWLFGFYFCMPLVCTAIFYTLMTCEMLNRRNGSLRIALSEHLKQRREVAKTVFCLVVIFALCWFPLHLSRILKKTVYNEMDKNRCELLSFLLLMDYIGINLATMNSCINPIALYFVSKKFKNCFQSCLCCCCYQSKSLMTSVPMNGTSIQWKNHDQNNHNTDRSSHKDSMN
The data set is described as follows: Bioprofiling 6pt Antag ETA CHO. The format is cell-based. To be noted: antagonist readout vs Endothelin-1 (ET-1). The procedure: as §1

The target in a further data set is T6, Alpha1A (Homo sapiens, UniProt P35348).
T6 construct: expressed in transfected cells; host or cells: CHO
T6 sequence (P35348 1-466): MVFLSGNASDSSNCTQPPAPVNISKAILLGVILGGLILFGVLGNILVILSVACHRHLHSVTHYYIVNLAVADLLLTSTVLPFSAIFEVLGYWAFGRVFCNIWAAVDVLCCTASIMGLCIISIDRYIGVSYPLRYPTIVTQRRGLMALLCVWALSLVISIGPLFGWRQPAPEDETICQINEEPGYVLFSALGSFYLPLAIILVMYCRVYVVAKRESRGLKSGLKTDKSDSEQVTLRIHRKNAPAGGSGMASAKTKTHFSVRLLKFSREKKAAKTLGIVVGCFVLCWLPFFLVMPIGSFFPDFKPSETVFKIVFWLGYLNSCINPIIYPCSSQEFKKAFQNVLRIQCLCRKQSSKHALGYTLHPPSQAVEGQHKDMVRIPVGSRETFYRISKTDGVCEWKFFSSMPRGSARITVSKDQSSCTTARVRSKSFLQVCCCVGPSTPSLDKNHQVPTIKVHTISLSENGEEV
The experiment in a line: Bioprofiling 6pt Antag Alpha1A CHO. In kind it is cell-based. To be noted: antagonist readout vs A-61603. The procedure:
as §1

The next data set deals with MRC-5 cells. The experiment in a line: MRC-5 cytotoxicity. The format is cell-based. To be noted: for CC50: S1 Data; for IC50: Homo sapiens, MRC5, panel sheet, average, read-out: IC-50 MRC-5 cells.
Another data set is described as follows: MRC-5 cytotoxicity. In kind it is cell-based. As to conditions: human, MRC-5 cells; S1 Data.

Data on 6 molecules can be found in publication PMC7932521, “2-aminobenzimidazoles for leishmaniasis: From initial hit discovery to in vivo profiling” (PLoS Neglected Tropical Diseases, 2021).

T4 sequence (P41595 whole entry): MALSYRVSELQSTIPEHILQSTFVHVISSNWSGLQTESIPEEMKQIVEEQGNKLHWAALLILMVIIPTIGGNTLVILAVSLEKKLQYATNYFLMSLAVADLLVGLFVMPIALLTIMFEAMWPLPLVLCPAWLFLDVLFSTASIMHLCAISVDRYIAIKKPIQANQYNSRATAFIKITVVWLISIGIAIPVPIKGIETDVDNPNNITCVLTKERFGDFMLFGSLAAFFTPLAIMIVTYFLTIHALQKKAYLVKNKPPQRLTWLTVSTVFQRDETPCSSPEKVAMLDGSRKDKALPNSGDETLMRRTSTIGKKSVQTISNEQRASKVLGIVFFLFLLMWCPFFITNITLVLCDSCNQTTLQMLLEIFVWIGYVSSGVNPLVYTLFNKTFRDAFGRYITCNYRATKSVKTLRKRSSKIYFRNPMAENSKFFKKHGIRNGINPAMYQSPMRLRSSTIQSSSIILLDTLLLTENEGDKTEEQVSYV
T1 sequence (P28223 whole entry): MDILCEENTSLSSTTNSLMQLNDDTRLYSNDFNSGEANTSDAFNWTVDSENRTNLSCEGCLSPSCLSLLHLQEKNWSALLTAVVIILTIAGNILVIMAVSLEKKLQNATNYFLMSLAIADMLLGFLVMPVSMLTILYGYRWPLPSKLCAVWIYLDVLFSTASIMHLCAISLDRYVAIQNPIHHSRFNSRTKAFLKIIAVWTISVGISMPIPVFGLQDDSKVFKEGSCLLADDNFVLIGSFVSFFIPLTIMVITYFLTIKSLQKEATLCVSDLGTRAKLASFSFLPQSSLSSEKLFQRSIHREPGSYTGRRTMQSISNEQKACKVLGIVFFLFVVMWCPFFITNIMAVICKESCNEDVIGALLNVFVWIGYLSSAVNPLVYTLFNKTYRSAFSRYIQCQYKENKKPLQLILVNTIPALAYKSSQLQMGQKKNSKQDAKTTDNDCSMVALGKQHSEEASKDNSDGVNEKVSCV
T2 sequence (P35372 whole entry): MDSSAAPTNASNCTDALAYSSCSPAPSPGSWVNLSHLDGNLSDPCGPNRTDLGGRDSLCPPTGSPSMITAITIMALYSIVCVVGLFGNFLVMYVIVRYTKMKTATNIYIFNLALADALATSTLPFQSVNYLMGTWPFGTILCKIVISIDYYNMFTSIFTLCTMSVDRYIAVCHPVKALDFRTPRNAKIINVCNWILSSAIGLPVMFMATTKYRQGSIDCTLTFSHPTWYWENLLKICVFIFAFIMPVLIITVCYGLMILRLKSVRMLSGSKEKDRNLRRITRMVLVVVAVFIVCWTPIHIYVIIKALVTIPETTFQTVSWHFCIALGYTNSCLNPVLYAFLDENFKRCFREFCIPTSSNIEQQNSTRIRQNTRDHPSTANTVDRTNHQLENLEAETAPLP
Sequence of Cav1.2 (L-type) (Q01815 whole entry): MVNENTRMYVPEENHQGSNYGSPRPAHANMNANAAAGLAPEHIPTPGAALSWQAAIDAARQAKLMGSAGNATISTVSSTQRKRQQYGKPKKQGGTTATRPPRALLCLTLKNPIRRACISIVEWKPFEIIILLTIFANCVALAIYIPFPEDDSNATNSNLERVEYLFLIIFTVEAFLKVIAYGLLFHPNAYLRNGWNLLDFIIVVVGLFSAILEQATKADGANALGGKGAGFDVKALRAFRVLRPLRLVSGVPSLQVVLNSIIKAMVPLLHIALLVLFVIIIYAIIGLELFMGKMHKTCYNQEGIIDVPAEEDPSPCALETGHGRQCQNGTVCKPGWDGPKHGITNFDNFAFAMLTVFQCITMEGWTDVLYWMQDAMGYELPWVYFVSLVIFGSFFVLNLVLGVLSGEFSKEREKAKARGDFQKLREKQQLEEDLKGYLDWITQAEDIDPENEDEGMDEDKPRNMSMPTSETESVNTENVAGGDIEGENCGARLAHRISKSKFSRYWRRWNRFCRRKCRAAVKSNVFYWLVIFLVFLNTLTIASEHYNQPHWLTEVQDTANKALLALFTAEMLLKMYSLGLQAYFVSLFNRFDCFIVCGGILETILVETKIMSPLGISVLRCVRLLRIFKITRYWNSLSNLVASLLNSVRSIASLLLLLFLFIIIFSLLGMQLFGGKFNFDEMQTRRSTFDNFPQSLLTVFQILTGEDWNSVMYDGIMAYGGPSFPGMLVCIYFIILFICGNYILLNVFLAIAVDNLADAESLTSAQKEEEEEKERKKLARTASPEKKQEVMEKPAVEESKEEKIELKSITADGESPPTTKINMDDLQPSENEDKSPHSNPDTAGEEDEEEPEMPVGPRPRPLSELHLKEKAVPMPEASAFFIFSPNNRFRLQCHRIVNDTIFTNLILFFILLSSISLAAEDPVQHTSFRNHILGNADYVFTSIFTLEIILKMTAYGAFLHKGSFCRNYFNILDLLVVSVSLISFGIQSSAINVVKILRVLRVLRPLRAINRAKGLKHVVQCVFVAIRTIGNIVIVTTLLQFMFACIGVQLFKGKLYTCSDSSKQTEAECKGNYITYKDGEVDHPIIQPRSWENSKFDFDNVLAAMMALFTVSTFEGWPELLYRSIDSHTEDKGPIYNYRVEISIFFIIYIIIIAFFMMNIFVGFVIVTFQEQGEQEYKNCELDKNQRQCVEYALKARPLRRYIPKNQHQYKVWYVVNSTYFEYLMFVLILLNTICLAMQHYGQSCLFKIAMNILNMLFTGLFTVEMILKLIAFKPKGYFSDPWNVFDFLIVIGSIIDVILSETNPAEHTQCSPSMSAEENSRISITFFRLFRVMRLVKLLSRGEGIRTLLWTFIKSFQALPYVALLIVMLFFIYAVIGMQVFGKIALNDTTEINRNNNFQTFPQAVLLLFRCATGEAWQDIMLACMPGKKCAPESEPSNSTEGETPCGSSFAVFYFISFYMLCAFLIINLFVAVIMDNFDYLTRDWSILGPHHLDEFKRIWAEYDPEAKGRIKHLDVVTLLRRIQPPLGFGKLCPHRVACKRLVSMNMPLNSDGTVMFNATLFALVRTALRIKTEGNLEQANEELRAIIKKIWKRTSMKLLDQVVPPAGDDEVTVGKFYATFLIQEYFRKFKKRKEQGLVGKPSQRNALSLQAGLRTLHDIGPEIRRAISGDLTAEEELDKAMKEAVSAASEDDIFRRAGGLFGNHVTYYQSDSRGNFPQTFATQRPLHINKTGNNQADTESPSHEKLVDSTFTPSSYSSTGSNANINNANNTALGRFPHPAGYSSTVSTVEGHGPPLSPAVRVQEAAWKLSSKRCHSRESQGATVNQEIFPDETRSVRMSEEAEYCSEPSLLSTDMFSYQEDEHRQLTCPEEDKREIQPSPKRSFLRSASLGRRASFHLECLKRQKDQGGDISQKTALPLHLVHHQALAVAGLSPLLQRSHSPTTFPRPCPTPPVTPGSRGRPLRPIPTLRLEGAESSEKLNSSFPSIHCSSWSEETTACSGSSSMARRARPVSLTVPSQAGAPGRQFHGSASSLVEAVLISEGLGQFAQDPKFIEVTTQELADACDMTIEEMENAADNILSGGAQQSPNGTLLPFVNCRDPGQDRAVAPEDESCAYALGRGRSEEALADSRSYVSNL

As for `N#Cc1ccc2nc(NC(=O)c3ccnc(C(F)(F)F)c3)n(CC(F)(F)F)c2c1` [Compound 44, O=C(c1ccnc(C(F)(F)F)c1)Nc2nc(ccc(C#N)c3)c3n2CC(F)(F)F], the IC50 against 5-HT2A, at Opioid mu [1], against ETB, against Cav1.2 (L-type), on ETA and against Alpha1A was over 10 µM each time. In “Plasma protein binding”, the fraction unbound at 6 h, 2 μM is 0.008. The EC50 on Opioid mu [2] and on 5-HT2B was over 10 µM in each case. This molecule also gave a CC50 with MRC-5 cells of over 64 µM.
For the molecule `COc1ccc(C(=O)Nc2nc3ccc(C#N)cc3n2CC(F)(F)F)cn1` [Compound 43, O=C(c1ccc(OC)nc1)Nc2nc(ccc(C#N)c3)c3n2CC(F)(F)F], the IC50 against 5-HT2A, against Opioid mu [1], at ETB, against Cav1.2 (L-type), on ETA and against Alpha1A was over 10 µM in each case. Also, the half-maximal effective concentration (EC50) on Opioid mu [2] and at 5-HT2B was over 10 µM each time. In “MRC-5 cytotoxicity”, this molecule came in with a CC50 of over 64 µM.
On to `Cn1nccc1C(=O)Nc1nc2ccc(C#N)cc2n1CC(C)(C)C` [Compound 29, O=C(Nc1n(CC(C)(C)C)c(c2n1)cc(C#N)cc2)c3n(C)ncc3], for which the IC50 against 5-HT2A, against Opioid mu [1], at ETB, against Cav1.2 (L-type), at ETA and against Alpha1A was over 10 µM throughout. Further, the IC50 with MRC-5 cells is over 64 µM. Further, the fraction unbound at 6 h, 2 μM in “Plasma protein binding” is 0.029. The EC50 at Opioid mu [2] and at 5-HT2B was over 10 µM throughout. In “MRC-5 cytotoxicity”, the CC50 is 14.9 µM.
On to `N#Cc1ccc2nc(NC(=O)c3ccc(C(F)(F)F)nc3)n(CC(F)(F)F)c2c1` [Compound 45, O=C(c1ccc(C(F)(F)F)nc1)Nc2nc(ccc(C#N)c3)c3n2CC(F)(F)F], for which the IC50 at 5-HT2A, at Opioid mu [1], against ETB, against Cav1.2 (L-type), against ETA and on Alpha1A was over 10 µM in each case. The concentration giving a half-maximal response (EC50) at Opioid mu [2] and at 5-HT2B was over 10 µM in each case. The half-maximal cytotoxic concentration (CC50) in the data set with MRC-5 cells is over 64 µM.
For the molecule `Cn1nccc1C(=O)Nc1nc2ccc(C#N)cc2n1CC(F)(F)F` [Compound 30, O=C(c1ccnn1C)Nc2nc(ccc(C#N)c3)c3n2CC(F)(F)F], the IC50 against 5-HT2A, against Opioid mu [1], at ETB, on Cav1.2 (L-type), against ETA and against Alpha1A was over 10 µM each time. In addition, in “Plasma protein binding”, the fraction unbound at 6 h, 2 μM was 0.042. Also, the EC50 on Opioid mu [2] and on 5-HT2B was over 10 µM in each case. The molecule also came in with a CC50 in “MRC-5 cytotoxicity” of 12.8 µM.
With `Cn1nc(C(F)(F)F)cc1C(=O)Nc1nc2ccc(C#N)cc2n1CC(F)(F)F` [Compound 39, O=C(c1cc(C(F)(F)F)nn1C)Nc2nc(ccc(C#N)c3)c3n2CC(F)(F)F], the IC50 on 5-HT2A, on Opioid mu [1], at ETB, against Cav1.2 (L-type), against ETA and on Alpha1A was over 10 µM each time. In addition, in the data set with MRC-5 cells, the IC50 stood at 14.7 µM. Also, the fraction unbound at 6 h, 2 μM in “Plasma protein binding” was 0.006. The concentration giving a half-maximal response (EC50) at Opioid mu [2] and at 5-HT2B was over 10 µM throughout. In the data set “MRC-5 cytotoxicity”, this molecule yielded a CC50 of 7.87 µM.

In general, EC50 refers to the concentration needed to bring the measured effect to its halfway point. Read a low EC50 as higher potency in that assay. The term CC50 denotes the concentration giving 50% cytotoxicity. High values mean better tolerance by the cells, low ones harm at low concentration.
